Source: article PMC6389703, “Identification of Biologically Active Ganoderma lucidum Compounds and Synthesis of Improved Derivatives That Confer Anti-cancer Activities in vitro” (Frontiers in Pharmacology, 2019)

Tests used:
BCR-ABL cells = assay: Cell Titer Glo viability assay, BCR-ABL; format: cell-based, murine; settings: Mus musculus, 72-h treatment
Protocol: (§1) Either 1 × 10^3–4.8 × 10^3 or 4 × 10^2–1.2 × 10^3 cells were seeded to each well of 96- or 384-well white polystyrene flat-bottomed plates (3610 or 8804BC, Corning) in 100 μL or 30 μL media per well, respectively. The concentrations used were experimentally determined to ensure logarithmic growth during the duration of the experiment and prevent adverse effects on cell growth by DMSO exposure. The plates were incubated at 37°C in 5% CO2 for 24 h before treatment. Stock solutions of test compounds (10 mM in DMSO) in nine 3-fold serial dilutions were dispensed via pintool (Biomek). The final concentration of DMSO was 0.3% (v/v) in each well. […] Luminescence was recorded in an Envision plate reader (PerkinElmer).
(§2) For the CTG assay, 3 or 4 replicate assays were conducted for each experimental condition, and a minimum of 3 independent experiments were conducted for cellular assays. The mean luminescence of each experimental treatment group was normalized as a percentage of the mean intensity of untreated controls. EC50 values (μM) were calculated by Pipeline Pilot Software (Accelrys, Enterprise Platform, San Diego, CA, United States). EC50 values (μM) from the viability assay were calculated from dose response curve-fitting via non-linear regression by using GraphPad Prism (Version 7.0, San Diego, CA, United States). […]

[1] = Incubation of EP with NAC, monitored by NMR and LC-MS; format: physicochemical; settings: NAC in DMSO, 24 h at 37°C
SUM-149 cells [2] = assay: Colony formation assay; format: cell-based, human; settings: 72 h treatment, 5–40 μM, 10 days culture
Protocol: SUM-149 cells (1.5 × 10^6 cells/well) were plated on a 6-well plate. Two days later, cell media was changed to 5% FBS, and cells were incubated at 37°C in a 5% CO2 atmosphere for 1 h before vehicle (0.1% DMSO) or EP (5–40 μM) was added. After 72 h of treatment, cells were trypsinized and reseeded at 200 cells/mL per well in 24-well plates. After 10 days of culture, colonies were visualized by crystal violet staining, and the colony numbers were counted under a microscope.

SUM-149 cells [3] = assay: ROS measurement (CellROX green), SUM-149; format: cell-based, human; settings: EP 20 μM
Protocol: SUM-149 or MDA-MB-231 were plated in 96-well plates at a density of 2 × 10^4 and 1 × 10^4 cells/well, respectively, in black 96-well clear bottom tissue culture plates and incubated for 24 h at 37°C. The mRuby-Mito-7 plasmid was obtained from Addgene (#55874 from Michael Davidson). A stable clone of MCF-7 was generated by using Fugene 6 (Roche) to transfect cells (2 × 10^5) with plasmid (2.0 μg) under neomycin selection. A stable cell line was selected by using G418 (300 μg/mL) for 2 weeks, sorted by flow cytometry, and maintained under G418 thereafter. Transfected MCF-7 cells were plated at a density of 2 × 10^4 cells/well in black 96-well clear bottom tissue culture plates and incubated overnight at 37°C. To test for ROS formation and remove background, cells were replenished with fresh PBS with 2% FBS and treated with the desired compounds for 1 h at 37°C. DMSO (0.5%) was used as a negative control, while Menadione (Mena, at 10 μM) or t-Butyl hydroperoxide (TBHP) at 100 μM final concentration were used as a positive control. To evaluate the compounds’ effects on ROS formation inhibition, the free radical scavenger N-acetyl cysteine (NAC) was used. Cells were treated with or without NAC (500 μM or 100 μM) for 1 h, then CellROX® green reagent (Molecular Probes #C10444) was added to a final concentration of 5 μM, and cells were incubated for an additional 30 min at 37°C. Cells were then washed 2× with PBS, followed by fixation with 4% paraformaldehyde (v/v) for 15 min, and 2 more washes with PBS. Fluorescence intensity was measured in a Clariostar® plate reader (BMG LABTECH, Cary, NC, United States) at 535 nm.

SUM-190 cells = assay: Cell viability assay, SUM-190; format: cell-based; settings: Homo sapiens, SUM190; Figure 4E
Protocol: as §1, with “(PerkinElmer). […]” for “(PerkinElmer).”
as §2

[4] = test system: AKT isoforms, BCL-XL, Cyclin D1, c-Myc, PARP in SUM-149 cells; assay: Immunoblots of signaling proteins; format: cell-based, human
Text: Breast cancer cells treated with vehicle or EP were lysed, and equal total protein was resolved via SDS-PAGE and immunoblotted with indicated antibodies (Cell Signaling Technologies, Abcam, Sigma) as described previously ([Castillo-Pichardo et al., 2009]; [Martinez-Montemayor et al., 2011]; [Suarez-Arroyo et al., 2016]).

CC(C)[C@@H](C)/C=C/[C@@H](C)[C@H]1CC[C@@H]2[C@]1(C)CC[C@H]1[C@]23C=C[C@]2(C[C@@H](O)CC[C@]12C)OO3 [EP, ergosterol peroxide]
EC50 (BCR-ABL cells): 6.9 µM
reaction of the endoperoxide motif with NAC [1]: no observable olefin migration or opening of the endoperoxide was detected
number and size of colonies formed (SUM-149 cells [2]): concentration-dependent decrease
ROS formation (fold) (SUM-149 cells [3]; 1 h): fourfold
reduction in ROS formation in the presence of NAC (SUM-149 cells [3]; NAC 500 μM, menadione 10 μM): about 20%
EC50 (SUM-190 cells): 43 µM
AKT3 levels ([4]; SUM-149): not affecting AKT3 levels
p-AKT2 ([4]; SUM-149): without affecting p-AKT2
PARP cleavage ([4]; SUM-149, 30 μM, 24 h): induces PARP cleavage
total PARP levels ([4]; SUM-149, 30 μM, 24 h): significantly reduces total PARP levels
AKT2 levels ([4]; SUM-149, 72 h): decreases
expression of BCL-XL ([4]; SUM-149, 72 h): significantly reduces
expression of Cyclin D1 ([4]; SUM-149, 72 h): significantly reduces
expression of c-Myc ([4]; SUM-149, 72 h): significantly reduces
expression of p-AKT1 (Ser 473) ([4]; SUM-149, 72 h): significantly decreases
total AKT1 levels ([4]; SUM-149, 72 h): decreases total AKT1
